Reference: US12643886B2 (Ontario Institute for Cancer Research (OICR), priority 2021, dated 2026)

What was measured:
[1] = target: T1, NUAK2 (h) (Homo sapiens, UniProt Q9H093); experiment: NUAK2 enzymatic assay (radiometric, Eurofins); assay type: biochemical; details: full-length recombinant enzyme
T1 construct: This assay was done radiometrically using full-length, recombinant enzyme; purchased Eurofins
T1 sequence (Q9H093 1-628): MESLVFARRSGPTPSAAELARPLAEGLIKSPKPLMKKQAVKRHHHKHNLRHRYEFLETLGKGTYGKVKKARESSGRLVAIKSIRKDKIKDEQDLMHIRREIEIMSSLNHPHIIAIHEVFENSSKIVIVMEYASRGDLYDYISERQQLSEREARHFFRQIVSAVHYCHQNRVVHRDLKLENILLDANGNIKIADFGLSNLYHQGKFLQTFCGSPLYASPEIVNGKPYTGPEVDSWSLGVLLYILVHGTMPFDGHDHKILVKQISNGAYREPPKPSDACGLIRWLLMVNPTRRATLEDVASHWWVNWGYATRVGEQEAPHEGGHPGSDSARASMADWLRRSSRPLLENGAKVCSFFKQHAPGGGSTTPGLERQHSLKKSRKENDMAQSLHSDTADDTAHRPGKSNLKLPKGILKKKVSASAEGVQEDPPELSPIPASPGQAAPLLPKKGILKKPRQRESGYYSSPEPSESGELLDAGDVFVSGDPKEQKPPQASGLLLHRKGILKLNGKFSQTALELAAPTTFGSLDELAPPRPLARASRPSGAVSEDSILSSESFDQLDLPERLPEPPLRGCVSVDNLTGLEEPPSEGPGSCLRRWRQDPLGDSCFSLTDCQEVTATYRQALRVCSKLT
In short: (§1)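 Full-length recombinant NUAK2 incubated 40 min at room temperature in 8 mM MOPS pH 7.0, 0.2 mM EDTA, 10 mM magnesium acetate, 300 μM peptide substrate and 33P-ATP. Stopped with 0.5% phosphoric acid; filter-bound label counted by scintillation. IC50 reported as ranges; NUAK1 and Aurora A served as counter-screens.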

[2] = target: T2, NUAK1 (Homo sapiens, UniProt O60285); experiment: Counter-screen against NUAK1; assay type: biochemical
T2 sequence (O60285 1-661): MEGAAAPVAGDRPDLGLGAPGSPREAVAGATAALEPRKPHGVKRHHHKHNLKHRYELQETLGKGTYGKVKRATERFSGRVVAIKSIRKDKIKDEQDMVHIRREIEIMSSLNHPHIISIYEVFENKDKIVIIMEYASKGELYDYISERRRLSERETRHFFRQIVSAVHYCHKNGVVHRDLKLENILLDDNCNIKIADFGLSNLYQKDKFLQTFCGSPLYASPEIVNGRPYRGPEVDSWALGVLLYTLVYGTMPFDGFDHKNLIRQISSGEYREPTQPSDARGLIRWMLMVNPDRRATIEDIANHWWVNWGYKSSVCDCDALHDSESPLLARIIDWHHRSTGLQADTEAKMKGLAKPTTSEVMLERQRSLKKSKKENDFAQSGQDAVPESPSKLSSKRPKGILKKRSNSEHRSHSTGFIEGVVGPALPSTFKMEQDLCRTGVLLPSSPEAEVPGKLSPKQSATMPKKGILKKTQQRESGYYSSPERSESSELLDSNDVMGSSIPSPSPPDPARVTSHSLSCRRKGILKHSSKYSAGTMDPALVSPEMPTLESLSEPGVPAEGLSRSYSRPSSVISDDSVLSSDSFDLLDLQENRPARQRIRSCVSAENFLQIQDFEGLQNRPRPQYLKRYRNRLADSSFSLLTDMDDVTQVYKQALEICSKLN
In short: as §1

[3] = target: T3, Aurora A (Homo sapiens, UniProt O14965); experiment: Counter-screen against Aurora A; assay type: biochemical; details: read-out: AUR-A (IC50)
T3 sequence (O14965 1-403): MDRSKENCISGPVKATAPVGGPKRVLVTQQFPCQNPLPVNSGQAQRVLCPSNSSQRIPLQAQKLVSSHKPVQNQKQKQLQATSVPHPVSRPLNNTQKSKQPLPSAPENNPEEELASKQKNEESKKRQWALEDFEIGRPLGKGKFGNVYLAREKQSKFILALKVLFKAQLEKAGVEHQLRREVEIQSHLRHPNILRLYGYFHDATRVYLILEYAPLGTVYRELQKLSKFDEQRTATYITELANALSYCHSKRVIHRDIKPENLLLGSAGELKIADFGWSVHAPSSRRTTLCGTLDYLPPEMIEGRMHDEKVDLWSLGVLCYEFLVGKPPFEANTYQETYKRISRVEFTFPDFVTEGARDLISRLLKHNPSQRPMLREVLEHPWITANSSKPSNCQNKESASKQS
In short: as §1

[4] = test system: MDA-MB-231 cells; experiment: Tumor cell growth inhibition assay (ATPlite, 5 days); assay type: cell-based; details: Homo sapiens, 120 h; breast tumor cell line MDA-MB-231, 5 days
Protocol: MDA-MB-231 cells were seeded into a 384-well plate at 1,000 cells/well in 50 μl medium (Alpha-MEM containing 10% FBS, […] Normocin, Invivogen and […] Gentamycin, Invitrogen). Plates were then incubated overnight for the cells to attach. An HP D300 digital dispenser was used to dose cells with DMSO or test compounds across a 16-point range of concentrations (high dose of 10 uM to low dose of 5 nM). Plates were incubated in a humidified 5% CO2 incubator at 37° C. After 5 days, plates were removed from the incubator and equilibrated to room temperature. An equal volume of ATPlite assay reagent was then added to each well, and samples processed according to manufacturer's instructions (Perkin Elmer). Luminescent signals were then measured using an Envision plate reader equipped with a US-Luminescence detector.

Compound | IC50 [1] [nM] | IC50 [2] [nM] | IC50 [3] [nM] | IC50 [4] [nM]
COc1cc2c(cc1Nc1ncc(C(F)(F)F)c(Nc3cccc4c3C(=O)NC4)n1)CCNC2 [Compound I-27] | 11 to 100 | 11 to 100 | > 1000 | 36
CCN1CCN(C2CCN(c3ccc(Nc4ncc(C(F)(F)F)c(Nc5cccc6c5C(=O)NC6)n4)c(OC(F)F)c3)CC2)CC1 [Compound I-33, 7-((2-((2-(difluoromethoxy)-4-(4-(4-ethylpiperazin-1-yl)piperidin-1-yl)phenyl)amino)-5-(trifluoromethyl)pyrimidin-4-yl)amino)isoindolin-1-one] | 11 to 100 | 11 to 100 | 101 to 1000 | 38
O=C1NCc2cccc(Nc3nc(Nc4ccc(N5C[C@H]6C[C@@H]5CN6)cc4OC(F)F)ncc3C(F)(F)F)c21 [Compound I-71, 7-((2-((4-((1R,4R)-2,5-diazabicyclo[2.2.1]heptan-2-yl)-2-(difluoromethoxy)phenyl)amino)-5-(trifluoromethyl)pyrimidin-4-yl)amino)isoindolin-1-one] | 0.1 to 10 | 11 to 100 | 101 to 1000 | 
CC(C)N1C[C@@H]2C[C@H]1CN2c1ccc(Nc2ncc(C(F)(F)F)c(Nc3cccc4c3C(=O)NC4)n2)c(OC(F)F)c1 [Compound I-73, 7-((2-((2-(difluoromethoxy)-4-((1S,4S)-5-isopropyl-2,5-diazabicyclo[2.2.1]heptan-2-yl)phenyl)amino)-5-(trifluoromethyl)pyrimidin-4-yl)amino)isoindolin-1-one] | 0.1 to 10 | 0.1 to 10 | 101 to 1000 | 
CCN1CCN(c2ccc(Nc3ncc(C(F)(F)F)c(Nc4cccc5c4C(=O)NC5)n3)c(OC(F)F)c2)CC1 [Compound I-78, 7-((2-((2-(difluoromethxoy)-4-(4-ethylpiperazin-1-yl)phenyl)amino)-5-(trifluoromethyl)pyrimidin-4-yl)amino)isoindolin-1-one] | 0.1 to 10 | 11 to 100 | 101 to 1000 | 
CN1CCN(c2ccc(Nc3ncc(C(F)(F)F)c(Nc4cccc5c4C(=O)NC5)n3)c(OC(F)F)c2)CC1 [Compound I-79, 7-((2-((2-(difluoromethxoy)-4-(4-methylpiperazin-1-yl)phenyl)amino)-5-(trifluoromethyl)pyrimidin-4-yl)amino)isoindolin-1-one] | 0.1 to 10 | 11 to 100 | 101 to 1000 | 
CN1C[C@@H]2C[C@H]1CN2c1ccc(Nc2ncc(C(F)(F)F)c(Nc3cccc4c3C(=O)NC4)n2)c(OC(F)F)c1 [Compound I-82, 7-((2-((2-(difluoromethoxy)-4-((1S,4S)-5-methyl-2,5-diazabicyclo[2.2.1]heptan-2-yl)phenyl)amino)-5-(trifluoromethyl)pyrimidin-4-yl)amino)isoindolin-1-one] | 0.1 to 10 | 11 to 100 | 101 to 1000 | 
Cc1cnc(Nc2ccc(N3CCN(C)CC3)cc2OC(F)F)nc1Nc1cccc2c1C(=O)NC2 [Compound I-83, 7-((2-((2-(difluoromethoxy)-4-(4-methylpiperazin-1-yl)phenyl)amino)-5-methylpyrimidin-4-yl)amino)isoindolin-1-one] | 0.1 to 10 | 11 to 100 | > 1000 | 

More lines, now with the values ahead:

IC50 [1] [nM] | IC50 [2] [nM] | IC50 [3] [nM] | IC50 [4] [nM] | Compound
0.1 to 10 | 11 to 100 | 101 to 1000 |  | O=C1NCc2cccc(Nc3nc(Nc4ccc(N5[C@@H]6CC[C@H]5CNC6)cc4OC(F)F)ncc3C(F)(F)F)c21 [Compound I-70, 7-((2-((4-((1R,5S)-3,8-diazabicyclo[3.2.1]octan-8-yl)-2-(difluoromethoxy)phenyl)amino)-5-(trifluoromethyl)pyrimidin-4-yl)amino)isoindolin-1-one]
0.1 to 10 | 11 to 100 | 101 to 1000 |  | O=C1NCc2cccc(Nc3nc(Nc4ccc(N5C[C@H]6C[C@@H]5CN6)cc4OC(F)F)ncc3Cl)c21 [Compound I-72, 7-((2-((4-((1R,4R)-2,5-diazabicyclo[2.2.1]heptan-2-yl)-2-(difluoromethoxy)phenyl)amino)-5-chloropyrimidin-4-yl)amino)isoindolin-1-one]
0.1 to 10 | 11 to 100 | 101 to 1000 |  | O=C1NCc2cccc(Nc3nc(Nc4ccc(N5CCCNCC5)cc4OC(F)F)ncc3Cl)c21 [Compound I-74, 7-((2-((4-(1,4-diazepan-1-yl)-2-(difluoromethoxy)phenyl)amino)-5-chloropyrimidin-4-yl)amino)isoindolin-1-one]
0.1 to 10 | 0.1 to 10 | 0.1 to 10 |  | O=C1NCc2cccc(Nc3nc(Nc4ccc(N5[C@@H]6CC[C@H]5CNC6)cc4OC(F)F)ncc3Cl)c21 [Compound I-75, 7-((2-((4-((1R,5S)-3,8-diazabicyclo[3.2.1]octan-8-yl)-2-(difluoromethoxy)phenyl)amino)-5-chloropyrimidin-4-yl)amino)isoindolin-1-one]
0.1 to 10 | 11 to 100 | 101 to 1000 |  | O=C1NCc2cccc(Nc3nc(Nc4ccc(N5C[C@H]6CNC[C@H]6C5)cc4OC(F)F)ncc3Cl)c21 [Compound I-76, 7-((5-chloro-2-((2-(difluoromethoxy)-4-((3aR,6aS)-hexahydropyrrolo[3,4-c]pyrrol-2(1H)-yl)phenyl)amino)pyrimidin-4-yl)amino)isoindolin-1-one]
11 to 100 | 11 to 100 | 101 to 1000 |  | O=C1NCc2cccc(Nc3nc(Nc4ccc(N5CCC6(CCNCC6)CC5)cc4OC(F)F)ncc3Cl)c21 [Compound I-77, 7-((5-chloro-2-((2-(difluoromethoxy)-4-(3,9-diazaspiro[5.5]undecan-3-yl)phenyl)amino)pyrimidin-4-yl)amino)isoindolin-1-one]
11 to 100 | 11 to 100 | 101 to 1000 |  | CCN1CCN(C2CCN(c3ccc(Nc4ncc(Cl)c(Nc5cccc6c5C(=O)NC6)n4)c(OC(F)F)c3)CC2)CC1 [Compound I-80, 7-((5-chloro-2-((2-(difluoromethoxy)-4-(4-(4-ethylpiperazin-1-yl)piperidin-1-yl)phenyl)amino)pyrimidin-4-yl)amino)isoindolin-1-one]
11 to 100 | 11 to 100 | 101 to 1000 |  | CC(C)N1CCN(C2CCN(c3ccc(Nc4ncc(Cl)c(Nc5cccc6c5C(=O)NC6)n4)c(OC(F)F)c3)CC2)CC1 [Compound I-81, 7-((5-chloro-2-((2-(difluoromethoxy)-4-(4-(4-isopropylpiperazin-1-yl)piperidin-1-yl)phenyl)amino)pyrimidin-4-yl)amino)isoindolin-1-one]
